Test results as given in ChEMBL document CHEMBL1136107, “Improvement of therapeutic index of phosphodiesterase type IV inhibitors as anti-Asthmatics” (Bioorg Med Chem Lett, 2003).
Activity calls are given as the source filed them.

Key:
Cavia porcellus [1] = test: Inhibition of bronchoconstriction in passively-sensitized guinea pig at 1 mg/kg iv dose 10 min prior to challenge; assay type: functional; conditions: Lung
Cavia porcellus [2] = test: Eosinophil infiltration in passively-sensitized guinea pig at 30 mg/kg peroral dose 90 min prior to challenge; assay type: functional; conditions: route oral
Mustela putorius furo = test: Emetic effect in ferrets after peroral administration at 0.03 mg/kg (2/5); assay type: functional, organism-based; design: dose 0.03 mg/kg

Compound	inhibition in vivo at 1 mg/kg (Cavia porcellus [1])	inhibition in vivo at 30 mg/kg (Cavia porcellus [2])	Emesis (Mustela putorius furo)
COc1ccc(/C=N/NC(N)=O)cc1OC1CCCC1	90.3%	63%	
COc1ccc(C2CNC(=O)C2)cc1OC1CCCC1 (stereo not given) [ROLIPRAM]	95.4%	62%	Partially active
